Marks after values point to notes of the source that are not given here.
Key:
[1] = system: type 2 diabetic mouse (db/db) model; test: Reduction in blood glucose and effect on body weight and food intake, single dose, db/db mice (Tables 4, 5); format: in vivo
Experimental: The effect of Compounds of present invention on blood glucose was studied on mice. This study was performed in a type 2 diabetic mouse (db/db) model. […] Baseline blood glucose was measured from all the animals. All animals were administered with its respective test item subcutaneously. […] Delta blood glucose (mM) was calculated. Similarly body weight changes and cumulative food consumption was measured at 96 hr post treatment.

[2] = system: type 2 diabetic mouse (db/db) model; test: Reduction of HbA1c in db/db type 2 diabetic mice after chronic treatment (HbA1c, insulin, triglycerides, food consumption, body weight); format: in vivo; conditions: for Cumulative Food Consumption Day 0-28 / Insulin / Triglycerides / Δ% HbA1c vs. DC / Body Weight (%) Day 28 vs. Baseline: db/db mice
Experimental: This study was performed in a type 2 diabetic mouse (db/db) model. […] All the treatments were injected subcutaneously every third day for 10 doses (q3d*10). % HbA1c, Insulin, Triglycerides levels were measured on Day 0, day 14 and day 28. Cumulative food intake from day 0-28 and % Change in body weight compared to day 0 was calculated on day 28.

[3] = system: type 2 diabetic mouse (db/db) model; test: Effect of Compound 2 and 7 on blood glucose, body weight and food consumption in mice, up to 72 hr (Tables 6, 7); format: in vivo; conditions: 90 nM/kg; mice, n = 8
Experimental: Similarly body weight changes and cumulative food consumption was measured at 72 hr post treatment.

[4] = biological target: glucagon-like peptide-1 receptor (GLP-1R) (UniProt P43220 24-463, limits assumed); test: cell-based or functional assay
GIP-receptor (GIPR) = biological target: T1, GIP-receptor (GIPR) (UniProt P48546 22-466, limits assumed); test: cell-based or functional assay
T1 sequence (looked up): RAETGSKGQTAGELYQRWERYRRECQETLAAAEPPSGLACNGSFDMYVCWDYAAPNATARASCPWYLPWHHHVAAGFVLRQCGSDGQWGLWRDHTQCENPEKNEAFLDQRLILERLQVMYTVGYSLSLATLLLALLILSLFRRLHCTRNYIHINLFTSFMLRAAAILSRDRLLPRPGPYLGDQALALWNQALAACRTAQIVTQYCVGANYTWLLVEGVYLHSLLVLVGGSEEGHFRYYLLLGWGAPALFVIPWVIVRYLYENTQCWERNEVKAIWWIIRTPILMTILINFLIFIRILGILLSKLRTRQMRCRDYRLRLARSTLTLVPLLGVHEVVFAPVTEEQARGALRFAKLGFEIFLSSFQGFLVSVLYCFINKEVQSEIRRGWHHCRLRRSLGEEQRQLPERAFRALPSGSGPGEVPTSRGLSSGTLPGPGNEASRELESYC

[5] = 59 nM/kg s.c., separate study n = 5

## Tirzepatide [reference compound]
[1]; 10 nM/kg s.c., n = 6 study
  Cumulative Food Intake (g) 0-96 hr, Mean: 13.3*** g
  Body Weight Change (%) 96 hr., Mean: −3.4*** %
[1]; [5]
  Cumulative Food Intake (g) 0-96 hr, Mean: 15.9 g
  Body Weight Change (%) 96 hr., Mean: −2.8** %
[2]; 180 nM/kg dose
  improvement in HbA1c reduction from day 14 to day 28 (in words): minimal improvement in HbA1c reduction
[2]; 90 nM/kg s.c. q3d*10
  Cumulative Food Consumption Day 0-28: 119.1
[2]; 180 nM/kg s.c. q3d*10
  Cumulative Food Consumption Day 0-28: 90.1
[2]; Day 14, 90 nM/kg s.c. q3d*10
  Insulin: 65.23 ng/mL
  Triglycerides: 168.7 mg/dL
  Δ% HbA1c vs. DC: −2.63*** %
[2]; Day 14, 180 nM/kg s.c. q3d*10
  Insulin: 71.77 ng/mL
  Triglycerides: 143.4 mg/dL
  Δ% HbA1c vs. DC: −3.50*** %
[2]; Day 28, 90 nM/kg s.c. q3d*10
  Body Weight (%) Day 28 vs. Baseline: −0.9%
  Insulin: 52.32 ng/mL
  Triglycerides: 167.4 mg/dL
  Δ% HbA1c vs. DC: −3.43*** %
[2]; Day 28, 180 nM/kg s.c. q3d*10
  Body Weight (%) Day 28 vs. Baseline: −6.8%
  Insulin: 60.19 ng/mL
  Triglycerides: 141.3 mg/dL
  Δ% HbA1c vs. DC: −3.74*** %
[3]
  % Body wt. change 72 hr. vs. 0 hr., Mean: −6.7*** %
  Cumulative Food Consumption (0-72 hr) (g), Mean: 8.1** g

B1: Compound 2 (peptide)
peptide: YXEGTFTSDYSIXLDKIAQKAFVQWLIAGGPSSGAPPPS
modifications: Aib at positions 2 and 13; side chain epsilon-amino group of Lys 20 acylated with Moiety B (U-W-Y-Z with W = -C(O)-C(CH3)2-NH-, i.e. 2-[2-(2-aminoethoxy)ethoxy]acetyl-Aib-gammaGlu-C20 diacid); C-terminal primary amide (Ser-NH2)
[4]
  Tirzepatide/Compound 2 ratio of half-maximal effective concentrations, cellular cAMP assay: 1.68 ratio
GIP-receptor (GIPR)
  Tirzepatide/Compound 2 ratio of half-maximal effective concentrations, cellular cAMP assay: 0.81 ratio

Source: patent US20230241178A1, “LONG ACTING GLP-1/GIP DUAL AGONISTS” (SUN PHARMACEUTICAL INDUSTRIES LIMITED, priority 2020, published 2023)
